Assay results from US11998513B2, “Two-part nitric oxide generating topical compositions” (THE REGENTS OF THE UNIVERSITY OF MICHIGAN, priority 2018, dated 2024).
Values belong to the compound of their own block, whether it stands above or below them.

Experiments:
Type in all cases: physicochemical
[1] = NO release from 1 mM GSNO bulk solution after addition of metal ions (chemiluminescence analyzer); settings: 100 μL of 1 mM salt into 2 mL of 1 mM GSNO, 10 mM Tris-HCl pH 7.4, dark, 24° C.
Description: Another experiment was performed to determine whether zinc ions can increase NO proliferation from GSNO in the dark at 24° C. NO release was measured using a nitric oxide (chemiluminescence) analyzer. Throughout the analysis, each solution was bubbled with N2 gas at a rate of 50 mL/min. Any generated NO was carried into the analyzer by a N2 sweep gas. All of the solutions were made with 10 mM Tris-HCl buffer (pH 7.4). A bulk solution was prepared including 1 mM GSNO in the buffer. 2 mL of this bulk solution were added to a sample cell and the analyzer was allowed to equilibrate for 1 minute. At t=1 minute, 100 μL of 1 mM zinc chloride (ZnCl2) was added to the bulk solution. […] For the control, 100 μL of the buffer (10 mM Tris-HCl, pH 7.4) was added into the bulk solution at t=1 minute. The same insignificant burst was observed. For each scenario, at t=10.5 minutes, 100 μL of 1 mM CuCl2 was added to the bulk as a positive control.

[2] = Storage stability of SNAP in VASELINE® (UV-Vis % Recovery); settings: room temperature
Description: The stability of 5 wt % and 10 wt % SNAP in petroleum jelly was tested. The petroleum jelly used was VASELINE®.
Mixtures of 5 wt % SNAP powder or 10 wt % SNAP powder in VASELINE® were mixed until homogeneity was achieved. Each homogeneous mixture was spread out on a weigh boat and dried under vacuum and desiccant for 24 hours. Afterwards, individual samples were weighed out into individual amber glass vials. Each sample's mass was recorded to obtain the theoretical amount of SNAP in each sample. Septum caps were used to allow purging of each sample with nitrogen gas for storage. All caps were then wrapped in parafilm, and then each vial was wrapped in aluminum foil to ensure that the samples are not exposed to light. All samples were stored in the dark at room temperature (˜25° C. in this example).
To quantify the amount of SNAP in each VASELINE® sample, UV-Vis was used. After recording the absorption of a sample, Beer's law (A=εbc, where A=absorption, ε=922 M^−1 cm^−1, b=1 cm, and c=concentration) was used to calculate the concentration of SNAP. These measurements were made at different times over several months.
When a stored SNAP/VASELINE® sample was going to be analyzed, it was opened and 40 mg of the sample was retrieved. […] The SNAP solution was diluted 1:10 twice, and used to obtain UV-Vis absorbance values between 0.2 and 2 AU (absorbance units) at […]. […]

[3] = Storage stability of GSNO in VASELINE® (UV-Vis % Recovery); settings: room temperature (18° C. to about 25° C.)
Description: The stability of 10 wt % GSNO in petroleum jelly was tested. The petroleum jelly used was VASELINE®.
A mixture 10 wt % GSNO in VASELINE® was mixed until homogeneity was achieved. The homogeneous mixture was spread out on a weigh boat and dried under vacuum and desiccant for 24 hours. Afterwards, individual samples were weighed out into individual amber glass vials. Each sample's mass, ranging from 15-40 mg per sample, was recorded to obtain the theoretical amount of GSNO in each sample. Septum caps were used to allow purging of each sample with nitrogen gas for storage. Each sample was purged under nitrogen gas for 5 hours. […]
To quantify the amount of GSNO in each VASELINE® sample, ultraviolet-visible spectroscopy (UV-Vis) was used. […]
When a stored GSNO/VASELINE® sample was going to be analyzed, it was opened, subjected to 5 mL of xylene, vortexed for 30 seconds, and stirred for 10 minutes. […] An aliquot of the aqueous layer was taken and the absorbance spectrum was captured from 200-600 nm using UV-Vis to quantitate the level of GSNO present in the GSNO/VASELINE® sample. […]
UV-Vis spectroscopy was used to determine the stability of GSNO in VASELINE®. […] After sample prep, the aliquot of the aqueous layer was taken in an appropriate volume so that the absorbance measured would be <1 at 334 nm. The sample was further diluted if necessary to achieve an absorbance of <1. […]

SMILES: [Cl-].[Cl-].[Zn+2] [ZnCl2, zinc chloride]
- NO release on addition to GSNO bulk solution (in words) [1]: small, insignificant burst of NO

- NO release on addition to GSNO bulk solution (in words) [1]: large burst in NO release
SMILES: [Cl][Cu][Cl] [CuCl2]

- period for which petroleum jelly is a stable carrier ([2]; higher amounts of SNAP (10 wt % SNAP)): at least 2 months
- period for which petroleum jelly is a stable carrier ([2]; lower amounts of SNAP (5 wt % SNAP)): at least 6 months
SMILES: CC(=O)N[C@@H](C(=O)O)C(C)(C)SN=O (racemic) [SNAP, S-nitroso-n-acetylpenicillamine]

- period for which petroleum jelly is a stable carrier [3]: at least 300 days
SMILES: N[C@@H](CCC(=O)N[C@@H](CSN=O)C(=O)NCC(=O)O)C(=O)O [GSNO, S-nitrosoglutathione]
